{
  "source": "patent US20230293530A1",
  "about": "“AGENTS FOR SENSITIZING SOLID TUMORS TO TREATMENT” (Yeda Research and Development Co. Ltd., priority 2020, published 2023)",
  "key": {"4T1 breast cancer cells": {"test_system": "4T1 breast cancer cells", "assay": "Syngeneic mouse breast cancer model, 4T1 cells pre-treated in vitro with mizoribine", "assay_type": "in vivo, BALB/c female mice", "description": "C) ASS1 mRNA expression levels and NDNO scores are associated with non-response to anti-PD1 therapy in non-small cell lung cancer (NSCLC) (7 responders and 14 nonresponders). D) Proteomic-based NDNO scores associate with lower hydrophobicity of peptide repertoire (Wilcoxon ranksum P<0.05) in a (CPTAC3) lung adenocarcinoma cohort. NDNO scores were used to determine the top tertile (red; n=36) and bottom tertile (blue; n=36); Proteomic NDNO scores denote the ratio of NNDO scores of the tumor vs the matched normal sample (Methods). Hydrophobicity scores were determined by R library Peptides using the metric from Janin et al^2, where the hydrophobicity of each sample’s peptide repertoire denotes the mean hydrophobicity of all its peptides (Methods). E) 4T1 breast cancer cells were treated with 300 µM mizoribine for 24 hours and analysed by western for LMP-7 immunoproteasome (Left panel). Quantification of the western is shown on the right panel. […] Tumor size was calliper-measured on the designated days (upper panel) and at sacrifice on day 14 (lower panel, p = 0.0476 using student’s t-test). […] Human IFNγ was measured using ELISA in wells containing cultured CD8+T-cells and PDX explants from two patients (Pat#1, LEP 19 and Pat#2, LEP 20) with metastatic NSCLC on responsive to anti-PD1. […]"}, "MC38 cells": {"test_system": "MC38 cells", "assay": "Nucleotide levels by LC-MS in MC38 cells with or without mizoribine", "assay_type": "cell-based, mouse", "conditions": "300 µM mizoribine, 24 h", "protocol": "A) Purine/pyrimidine ratio is increased upon nutrient deprivation in […] colon cancer cells. MC38 cells were grown in either regular medium or in medium without glucose for 24 h. Nucleotide levels were measured by LC-MS. Purine/pyrimidine ratio was calculated by dividing (AMP+GMP) AUC by (UMP+CMP) AUC. B) 4T1 cells with and without shASS1 were grown in glucose free medium either supplemented or not with 10 mM L-Name for 48 hrs. Nucleotide levels were measured by LC-MS. Purine/pyrimidine ratio was calculated by dividing the sum levels of (AMP+GMP) by the sum levels of (UMP+CMP+TMP). […] MC38 cells were grown either with or without 300 µM mizoribine for 24 h. Nucleotide levels were measured by LC-MS. […] Cell viability was measured by crystal violet staining. […]\nLC-MS analysis: The LC-MS/MS instrument consisting of an Acquity I-class UPLC system (Waters) and Xevo TQ-S triple quadrupole mass spectrometer (Waters), equipped with an electrospray ion source, and operated in positive ion mode was used for analysis of nucleoside monophosphates. […] Nucleotide concentration was calculated using a standard curve of the relevant nucleotide concentration in each sample. Standard curves included increasing concentration of all measured nucleotides ranging from 0-10 ug/ml that were positioned at the beginning and at the end of each run. […]"}},
  "data": [
    {"smiles": "NC(=O)c1ncn([C@@H]2O[C@H](CO)[C@@H](O)[C@H]2O)c1O", "note": "[Mizoribine, mizoribine]", "values": [
      {"measurement": "tumor growth", "setting": "4T1 breast cancer cells; 4T1 cells treated with mizoribine in vitro before injection into mammary pads, mizoribine alone", "result": "restricted tumor growth"},
      {"measurement": "tumor growth response in combination with anti-PD1", "setting": "4T1 breast cancer cells; 4T1 cells treated with mizoribine in vitro before injection, anti-PD1 intraperitoneal, mice unresponsive to anti-PD1", "result": "more significant response"},
      {"measurement": "purine/pyrimidine ratio (AMP+GMP) AUC/(UMP+CMP) AUC", "setting": "MC38 cells", "result": "decreased purine/pyrimidine ratio"}
    ]}
  ]
}
